For experiment [1], the target named is DNA-PK protein complex (Homo sapiens, UniProt P78527). Briefly: DNA-PK assay (HTRF). Format: biochemical. The procedure: The kinase assay was performed as HTRF® based 384-well assay. In a first step DNA-PK protein complex was incubated with or without test compound for 15 min at 22° C. After addition of the STK-substrate 1-biotin (Cisbio), Mg-ATP, DNA and staurosporine the reaction mixture was incubated for 60-80 min (depending on activity of DNA-PK protein complex) at 22° C. An Echo 555 (Labcyte) was used for dispensing of compound solutions. The assay buffer consisted of 25 mM HEPES PH 7.4, 11 mM MgCl2, 80 mM KCl, 0.45 mM EDTA, and 0.5 mM EGTA, and contained 1 mM dithiothreitol (DTT), 0.17% BSA, and 0.01% Tween® 20. The pharmacologically relevant volume was 5 μl. The final concentrations in the assay during incubation of the reaction mixture were 50-100 ng/well DNA-PK protein complex (depending on activity of DNA-PK protein complex), 1 μM STK-substrate 1-biotin, 10 μM Mg-ATP, 80 ng/well DNA from calf thymus, and 1 μM staurosporine. The enzymatic reaction was stopped by addition of EDTA. The generation of phosphorylated STK-substrate 1-biotin as result of the DNA-PK mediated reaction was detected via a specific anti-phospho STK-antibody (Cisbio) labeled with Europium (Eu) as donor and streptavidin labeled with XL665 (Cisbio) as acceptor allowing FRET. For this purpose, 4 μl of antibody- and streptavidin-containing stop solution (12.5 mM HEPES pH 8.0, 125 mM EDTA, 30 mM sodium chloride, 300 mM potassium fluoride, 0.006% Tween-20, 0.005% Brij® 35, 0.179 nM anti-phospho-STK antibody, 160 nM Streptavidin-XL665) were added to the reaction mixture. Following signal development for 1 h the plates were analyzed on a Rubystar or Pherastar microplate reader (BMG Labtech). The amount of phosphorylated substrate was directly proportional to the ratio of fluorescence units (excitation wavelength 337 nm) at the emission wavelengths 665 nm (Phosphopeptide-sensitive wavelength/emission of XL665) to the units at 620 nm (reference wavelength Europium). IC50-values were calculated using Genedata Screener® software. […]
(In general: In TR-FRET formats the signal depends on donor and acceptor labels being close together.)

For experiment [2], the target named is human phosphodiesterase-2A1 (Homo sapiens, UniProt O00408). Kind of experiment: PDE2A1 assay (Cerep). Format: biochemical. The procedure:
A commercially available assay was used (Cerep, catalog ref. 4071, SOP no 1C1054), which is designed to evaluate the effects of compounds on the activity of the human phosphodiesterase-2A1 quantified by measuring the formation of 5′AMP from cAMP using a human recombinant enzyme expressed in Sf9 cells.
The test compound, reference compound or water (control) are added to a buffer containing 40 mM Tris/HCl (pH 7.4), 8 mM MgCl2 and 1.7 mM EGTA/NaOH, 1.8 μM cAMP and 1 μCi [^3H]cAMP.
Thereafter, the reaction is initiated by addition of the enzyme (about 2.5 U) and the mixture is incubated for 20 min at 22° C.
(§1) For basal control measurements, the enzyme is omitted from the reaction mixture.
Following incubation SPA beads are added.
(§2) After 30 min at 22° C. under shaking, the amount of [^3H]5′AMP is quantified with a scintillation counter (Topcount, Packard).
(§3) The results are expressed as a percent inhibition of the control enzyme activity.
The standard inhibitory reference compound is EHNA (erythro-9-(2-hydroxy-3-nonyl) adenine), which is tested in each experiment at several concentrations to obtain an inhibition curve from which its IC50 value is calculated.

The test system of experiment [3] is pCHK1 (Cellular mechanistic ATR, HCT-116). Briefly: pCHK1 cellular assay. Format: cell-based, human.
For experiment [4], the target named is T1, human phosphodiesterase-4D2 (Homo sapiens, UniProt Q08499).
T1 construct: purchased Cerep 4077; host or cells: Sf9 cells
T1 sequence (Q08499 303-809 limits assumed): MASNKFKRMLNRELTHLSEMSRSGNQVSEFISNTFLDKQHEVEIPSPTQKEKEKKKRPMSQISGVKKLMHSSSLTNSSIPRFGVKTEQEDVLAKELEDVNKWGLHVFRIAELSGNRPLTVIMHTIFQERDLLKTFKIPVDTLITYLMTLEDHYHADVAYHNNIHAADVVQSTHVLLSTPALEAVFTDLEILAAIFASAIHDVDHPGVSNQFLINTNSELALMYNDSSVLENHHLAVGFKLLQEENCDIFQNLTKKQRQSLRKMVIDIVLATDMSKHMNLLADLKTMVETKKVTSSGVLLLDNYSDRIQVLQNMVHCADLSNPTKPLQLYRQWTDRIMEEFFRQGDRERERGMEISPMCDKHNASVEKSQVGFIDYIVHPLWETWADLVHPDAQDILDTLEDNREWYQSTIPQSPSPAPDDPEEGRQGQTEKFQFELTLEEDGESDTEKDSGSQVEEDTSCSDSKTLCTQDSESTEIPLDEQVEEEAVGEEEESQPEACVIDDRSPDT
Kind of experiment: PDE4D2 assay (Cerep). Format: biochemical. How it is done: A commercially available assay of Cerep was used (Catalog ref. 4077; SOP no 1C1045) The assay is designed to evaluate the effects of test compounds on the activity of the human phosphodiesterase-4D2 quantified by measuring the formation of 5′AMP from cAMP using a human recombinant enzyme expressed in Sf9 cells.
The test compound, reference compound or water (control) are added to a buffer containing 40 mM Tris/HCl (pH 7.4) and 8 mM MgCl2, 450 nM cAMP and 0.0125 μCi [^3H]cAMP.
Thereafter, the reaction is initiated by addition of the enzyme (about 1.5 U) and the mixture is incubated for 20 min at 22° C.
as §1
Following incubation SPA (scintillation proximity assay) beads are added.
as §2, §3
The standard inhibitory reference compound is Ro 20-1724, which is tested in each experiment at several concentrations to obtain an inhibition curve from which its IC50 value is calculated.

Experiment [5] relates to HBCx-10 patient-derived triple-negative breast cancer xenograft. Kind of experiment: HBCx-10 patient-derived xenograft, combination with olaparib. Format: in vivo, immunodeficient female mice. The following applies: 100 mg/kg p.o. (3 d on/4 d off)×7 with olaparib 50 mg/kg p.o. qd×49. How it is done: Seventy (70) mice with a subcutaneously growing HBCx-10 tumor (P20.1.4/0) between 62.5 and 196.0 mm^3 were allocated to treatment when their mean and median tumor volume reached 131.16 and 126.00 mm^3 respectively.
Tumors were measured biweekly during the treatment period and once a week during the follow-up period.
For orientation: In xenograft studies the graft and the host belong to different species.

Where [6] appears, read: Homo sapiens, HCT-116, HCT-116 as printed in the table.

Each structure is given as a SMILES string. pIC50: −log10 of the molar value.

Regarding `COc1cc2ncc3c(c2cc1-c1cn(C)nc1C)n(-c1c(F)cncc1OC)c(=O)n3C` (single isomer, unassigned) [Compound 2, 8-(1,3-Dimethyl-1H-pyrazol-4-yl)-1-(Ra)-(3-fluoro-5-methoxy-pyridin-4-yl)-7-methoxy-3-methyl-1,3-dihydro-imidazo[4,5-c]quinolin-2-one], the negative logarithm of the IC50 (pIC50) was 5.89 in experiment [1], 5.41 in experiment [2], below 4.52 in experiment [3] (HCT-116) and 6.36 in experiment [4].
In the case of `COc1cc2ncc3c(c2cc1-c1cn(C)nc1C)n(-c1c(F)cncc1OC)c(=O)n3C` (single isomer, unassigned) [Compound 1, 8-(1,3-Dimethyl-1H-pyrazol-4-yl)-1-(Sa)-(3-fluoro-5-methoxy-pyridin-4-yl)-7-methoxy-3-methyl-1,3-dihydro-imidazo[4,5-c]quinolin-2-one], the negative-log IC50 (pIC50) in experiment [1] is 6.22; in experiment [2] it was 5.66; in experiment [3] (setting [6]), at most 4.62; in experiment [4], 5.52. Also, the “Anti-tumor efficacy in combination with olaparib” value in experiment [5] was “efficacy of Compound 1 in combination with olaparib was demonstrated”.
For `COc1cc2ncc3c(c2cc1-c1cn(C)nc1C)n(-c1c(F)cncc1OC)c(=O)n3C` [Compound Y, 8-(1,3-dimethyl-1H-pyrazol-4-yl)-1-(3-fluoro-5-methoxypyridin-4-yl)-7-methoxy-3-methyl-1,3-dihydroimidazo[4,5-c]quinolin-2-one, reference compound], the pIC50 in experiment [1] was 6.01; in experiment [2] it was 5.85; in experiment [3] (setting [6]), 5.10; in experiment [4], 6.22.

For orientation: pIC50 means the negative decadic logarithm of the IC50, by convention in mol/L.

The record behind these values is patent US20250188080A1, “IMIDAZOLONYLQUINOLINE COMPOUNDS AND THERAPEUTIC USES THEREOF” (Merck Patent GmbH, priority 2019, published 2025).
